The values below are quoted from earlier work in patent publication US12384832B2 (priority 2019, dated 2025).

The data set concerns the target TEM-1 (Escherichia coli, UniProt P62593). The conditions noted are these: read-out: KM TEM-1, cited from earlier work.

Where two headings read alike, the source gives them in different places.

TEM-1, sequence (P62593 24-286 limits assumed): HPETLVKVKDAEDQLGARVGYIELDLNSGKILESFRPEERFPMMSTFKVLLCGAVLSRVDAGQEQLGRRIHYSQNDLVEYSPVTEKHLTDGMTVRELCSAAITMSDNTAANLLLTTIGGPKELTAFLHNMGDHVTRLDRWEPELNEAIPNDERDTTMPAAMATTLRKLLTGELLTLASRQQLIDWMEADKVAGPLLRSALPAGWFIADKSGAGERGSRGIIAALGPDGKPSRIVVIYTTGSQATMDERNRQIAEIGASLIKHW

Broadly, the Km is the substrate concentration at which the rate is half of its maximum. Take `O=C(Cc1cccs1)N[C@@H]1C(=O)N2C(C(=O)[O-])=C(C[n+]3ccccc3)CS[C@H]12` [cefaloridine]: the Km was 244 µM.
With `CC1(C)S[C@@H]2[C@H](NC(=O)Cc3ccccc3)C(=O)N2[C@H]1C(=O)O` [benzylpenicillin], the Km (substrate hydrolysis) is 26 µM.
On to `CC1(C)S[C@@H]2[C@H](NC(=O)[C@H](N)c3ccccc3)C(=O)N2[C@H]1C(=O)O` [ampicillin], for which, for the setting “substrate hydrolysis”, the Km was 40 µM.
